Test results: article PMC10460844, “Real‐Time Monitoring of Multitarget Antimicrobial Mechanisms of Peptoids Using Label‐Free Imaging with Optical Diffraction Tomography” (Advanced Science, 2023)
Square brackets hold non-standard residues; d marks the D form. Peptide text beside a SMILES is read from it. Gly(N(CH2)2(3-indolyl)) = O=C(O)CNCCc1c[nH]c2ccccc12; Nspe = C[C@H](NCC(=O)O)c1ccccc1; Nphe = O=C(O)CNCc1ccccc1; Nlys = NCCCCNCC(=O)O

How the values were obtained:
[1] = Analytical reversed-phase HPLC elution (hydrophobicity); type: physicochemical; details: Table S1; analytical RP-HPLC, SunFire C18, water/ACN + 0.1% TFA, 5 to 100% B linear over 30 min, 1 mL/min, UV 220 nm; approximate comparison of hydrophobicity
In short: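 Retention time (tR) reflects hydrophobicity, with detection at 220 nm. Elution used a 5–100% acetonitrile linear gradient over 30 min after a 2 min hold at 5%, then 5 min at 100%, with both phases containing 0.1% TFA. Column was an analytical C18 (4.6 × 250 mm, 5 μm) run at 1 mL/min.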

[2] = test system: rat erythrocytes; assay: Hemolysis assay; type: cell-based; details: for HC10 / HC50: pH 7.4
In short: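 Washed Sprague-Dawley rat erythrocytes (10% suspension in PBS pH 7.4) mixed with peptoids (0–100 µM), 60 min at 37 °C; supernatant A540 expressed as % of 1% Triton X-100 lysis. HC10/HC50 are concentrations giving 10%/50% hemolysis; Hmax is hemolysis at 100 µM.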

| HPLC elution [1] [% MeCN] | Structure (SMILES) | Hmax (100 µM) [2] [%] | HC10 [2] [µM] | HC50 [2] [µM] |
| --- | --- | --- | --- | --- |
| 51.2 | C[C@@H](c1ccccc1)N(CC(=O)N(CCCCN)CC(=O)N(CC(=O)N(CC(=O)N(CCCCN)CC(=O)N(CC(=O)N(CC(=O)N(CCCCN)CC(=O)N(CC(=O)N(CC(=O)N(CCCCN)CC(=O)N(CCCCN)CC(N)=O)[C@@H](C)c1ccccc1)[C@@H](C)c1ccccc1)[C@@H](C)c1ccccc1)[C@@H](C)c1ccccc1)[C@@H](C)c1ccccc1)[C@@H](C)c1ccccc1)C(=O)CNCCc1c[nH]c2ccccc12 [peptoid 61] (H-[Gly(N(CH2)2(3-indolyl))][Nspe][Nlys][Nspe][Nspe][Nlys][Nspe][Nspe][Nlys][Nspe][Nspe][Nlys][Nlys]-NH2) | 79.9±0.7 | 19.3 | 65.4 |
| 53.7 | C[C@@H](c1ccccc1)N(CC(N)=O)C(=O)CN(C(=O)CN(CCCCN)C(=O)CN(C(=O)CN(C(=O)CN(CCCCN)C(=O)CN(C(=O)CN(C(=O)CN(CCCCN)C(=O)CN(Cc1ccccc1)C(=O)CN(Cc1ccccc1)C(=O)CNCCCCN)[C@@H](C)c1ccccc1)[C@@H](C)c1ccccc1)[C@@H](C)c1ccccc1)[C@@H](C)c1ccccc1)[C@@H](C)c1ccccc1 [peptoid 46] | 90.8±2.7 | 6.9 | 36.5 |

Continued, molecule first:

| Structure (SMILES) | HPLC elution [1] [% MeCN] | Hmax (100 µM) [2] [%] | HC10 [2] [µM] | HC50 [2] [µM] |
| --- | --- | --- | --- | --- |
| C[C@@H](c1ccccc1)N(CC(=O)N(CCCCN)CC(=O)N(CC(=O)N(CC(=O)N(CCCCN)CC(=O)N(CC(=O)N(CC(=O)N(CCCCN)CC(=O)N(CCc1c[nH]c2ccccc12)CC(=O)N(CCc1c[nH]c2ccccc12)CC(N)=O)[C@@H](C)c1ccccc1)[C@@H](C)c1ccccc1)[C@@H](C)c1ccccc1)[C@@H](C)c1ccccc1)C(=O)CN(CCCCN)C(=O)CNCCCCN [peptoid 31] (H-[Nlys][Nlys][Nspe][Nlys][Nspe][Nspe][Nlys][Nspe][Nspe][Nlys][Gly(N(CH2)2(3-indolyl))][Gly(N(CH2)2(3-indolyl))]-NH2) | 50.2 | 18.4±5.0 | 59.0 | > 100 |
| C[C@@H](c1ccccc1)N(CC(=O)N(CCCCN)CC(=O)N(CC(=O)N(CC(=O)N(CCCCN)CC(=O)N(CCc1c[nH]c2ccccc12)CC(=O)N(CCc1c[nH]c2ccccc12)CC(N)=O)[C@@H](C)c1ccccc1)[C@@H](C)c1ccccc1)C(=O)CN(CCCCN)C(=O)CN(CCCCN)C(=O)CN(C(=O)CN(C(=O)CNCCCCN)[C@@H](C)c1ccccc1)[C@@H](C)c1ccccc1 [peptoid 30] (H-[Nlys][Nspe][Nspe][Nlys][Nlys][Nspe][Nlys][Nspe][Nspe][Nlys][Gly(N(CH2)2(3-indolyl))][Gly(N(CH2)2(3-indolyl))]-NH2) | 48.8 | 8.4±0.5 | > 100 | > 100 |
| C[C@@H](c1ccccc1)N(CC(=O)N(CCCCN)CC(=O)N(CC(=O)N(CC(=O)N(CCCCN)CC(=O)N(CC(=O)N(CC(=O)N(CCCCN)CC(=O)N(CC(=O)N(CC(=O)N(CC(N)=O)Cc1ccccc1)[C@@H](C)c1ccccc1)[C@@H](C)c1ccccc1)[C@@H](C)c1ccccc1)[C@@H](C)c1ccccc1)[C@@H](C)c1ccccc1)[C@@H](C)c1ccccc1)C(=O)CN(C(=O)CN(CCCCN)C(=O)CNCc1ccccc1)[C@@H](C)c1ccccc1 [peptoid 42] (H-[Nphe][Nlys][Nspe][Nspe][Nlys][Nspe][Nspe][Nlys][Nspe][Nspe][Nlys][Nspe][Nspe][Nphe]-NH2) | 57.7 | 105.9±1.1 | < 3.1 | 6.6 |
